This passage reports MIC results from ChEMBL document CHEMBL1139793, “Synthesis, structure analysis, and antibacterial activity of some novel 10-substituted 2-(4-piperidyl/phenyl)-5,5-dioxo[1,2,4]triazolo[1,5-b][1,2,4]benzothiadiazine derivatives” (2007).

Type in all cases: functional
One experiment has as its system Vibrio sp. Nature of the experiment: Antibacterial activity against Vibrio sp. after 24 hrs by disk diffusion method. Background: A growth-free zone around the sample is the usual read-out of agar diffusion tests.
The test system of the next experiment is Pseudomonas aeruginosa. Description: Antibacterial activity against Pseudomonas aeruginosa MTCC 424 after 24 hrs by disk diffusion method.
The test system of another experiment is Escherichia coli. Nature of the experiment: Antibacterial activity against Escherichia coli MTCC 448 after 24 hrs by disk diffusion method.
A further experiment has as its system Klebsiella pneumoniae. Nature of the experiment: Antibacterial activity against Klebsiella pneumoniae MTCC 618 after 24 hrs by disk diffusion method.
The subject of another experiment is Bacillus subtilis. Nature of the experiment: Antibacterial activity against Bacillus subtilis MTCC 441 after 24 hrs by disk diffusion method.
Experiment [1] relates to Staphylococcus epidermidis. Nature of the experiment: Antibacterial activity against Staphylococcus epidermidis MTCC 435 after 24 hrs by disk diffusion method.

Values after ≈ are worked out from the molar mass of the structure shown.

Consider `O=S(=O)(c1ccccc1)N1CCC(c2nc3n(n2)S(=O)(=O)c2ccccc2N3c2ccccc2)CC1`, for which the MIC turned out to be 32 µg/mL (≈ 61.3 µM) in the experiment with Vibrio sp.; 16 µg/mL (≈ 30.7 µM) in the experiment with Pseudomonas aeruginosa; 16 µg/mL (≈ 30.7 µM) against Escherichia coli; 32 µg/mL (≈ 61.3 µM) in the experiment with Klebsiella pneumoniae; 16 µg/mL (≈ 30.7 µM) in the experiment with Bacillus subtilis; 32 µg/mL (≈ 61.3 µM) in experiment [1].

As to `O=S(=O)(c1ccc(Cl)cc1Cl)N1CCC(c2nc3n(n2)S(=O)(=O)c2ccccc2N3c2ccccc2)CC1`, the MIC in the experiment on Vibrio sp. amounted to 16 µg/mL (≈ 27.1 µM); with Pseudomonas aeruginosa it was 32 µg/mL (≈ 54.2 µM); in the experiment with Escherichia coli, 16 µg/mL (≈ 27.1 µM); with Klebsiella pneumoniae, 32 µg/mL (≈ 54.2 µM); with Bacillus subtilis, 16 µg/mL (≈ 27.1 µM); in experiment [1], 32 µg/mL (≈ 54.2 µM).

As to `CC(=O)Nc1ccc(S(=O)(=O)N2CCC(c3nc4n(n3)S(=O)(=O)c3ccccc3N4c3ccccc3)CC2)cc1`, the MIC in the experiment on Vibrio sp. turned out to be 32 µg/mL (≈ 55.3 µM); against Pseudomonas aeruginosa, 32 µg/mL (≈ 55.3 µM); against Escherichia coli it was 16 µg/mL (≈ 27.6 µM); against Klebsiella pneumoniae it was 32 µg/mL (≈ 55.3 µM); with Bacillus subtilis it was 16 µg/mL (≈ 27.6 µM); in experiment [1] it was 32 µg/mL (≈ 55.3 µM).

As to `O=S(=O)(c1ccc(F)cc1)N1CCC(c2nc3n(n2)S(=O)(=O)c2ccccc2N3c2ccccc2)CC1`, the minimal inhibitory concentration (MIC) with Vibrio sp. is 16 µg/mL (≈ 29.7 µM); against Pseudomonas aeruginosa, 32 µg/mL (≈ 59.3 µM); in the experiment on Escherichia coli, 16 µg/mL (≈ 29.7 µM); in the experiment with Klebsiella pneumoniae it was 32 µg/mL (≈ 59.3 µM); with Bacillus subtilis, 16 µg/mL (≈ 29.7 µM); in experiment [1], 32 µg/mL (≈ 59.3 µM).

As to `CN1c2ccccc2S(=O)(=O)n2nc(C3CCN(S(=O)(=O)c4ccccc4)CC3)nc21`, the MIC came to 32 µg/mL (≈ 69.6 µM) in the experiment with Vibrio sp.; 64 µg/mL (≈ 139 µM) in the experiment with Pseudomonas aeruginosa; 8 µg/mL (≈ 17.4 µM) in the experiment on Escherichia coli; 32 µg/mL (≈ 69.6 µM) against Klebsiella pneumoniae; 16 µg/mL (≈ 34.8 µM) in the experiment on Bacillus subtilis; 32 µg/mL (≈ 69.6 µM) in experiment [1].

`CC(=O)Nc1ccc(S(=O)(=O)Nc2ccc(-c3nc4n(n3)S(=O)(=O)c3ccccc3N4c3ccccc3)cc2)cc1`: the MIC with Vibrio sp. was found to be 32 µg/mL (≈ 54.5 µM); against Pseudomonas aeruginosa, 32 µg/mL (≈ 54.5 µM); against Escherichia coli, 8 µg/mL (≈ 13.6 µM); against Klebsiella pneumoniae, 16 µg/mL (≈ 27.3 µM); against Bacillus subtilis it was 8 µg/mL (≈ 13.6 µM); in experiment [1], 32 µg/mL (≈ 54.5 µM).

On to `CN1c2ccccc2S(=O)(=O)n2nc(C3CCN(S(=O)(=O)c4ccc(Cl)cc4Cl)CC3)nc21`, for which the MIC was 32 µg/mL (≈ 60.6 µM) in the experiment with Vibrio sp.; 64 µg/mL (≈ 121 µM) against Pseudomonas aeruginosa; 16 µg/mL (≈ 30.3 µM) in the experiment with Escherichia coli; 16 µg/mL (≈ 30.3 µM) against Klebsiella pneumoniae; 16 µg/mL (≈ 30.3 µM) in the experiment with Bacillus subtilis; 16 µg/mL (≈ 30.3 µM) in experiment [1].

In the case of `CC(=O)Nc1ccc(S(=O)(=O)N2CCC(c3nc4n(n3)S(=O)(=O)c3ccccc3N4C)CC2)cc1`, the MIC in the experiment with Vibrio sp. amounted to 16 µg/mL (≈ 31 µM); against Pseudomonas aeruginosa, 32 µg/mL (≈ 61.9 µM); against Escherichia coli, 8 µg/mL (≈ 15.5 µM); against Klebsiella pneumoniae, 32 µg/mL (≈ 61.9 µM); against Bacillus subtilis, 32 µg/mL (≈ 61.9 µM); in experiment [1] it was 32 µg/mL (≈ 61.9 µM).

For `Cc1ccc(S(=O)(=O)N2CCC(c3nc4n(n3)S(=O)(=O)c3ccccc3N4c3ccccc3)CC2)cc1`, the MIC was found to be 32 µg/mL (≈ 59.7 µM) against Vibrio sp.; 32 µg/mL (≈ 59.7 µM) against Pseudomonas aeruginosa; 16 µg/mL (≈ 29.9 µM) with Escherichia coli; 16 µg/mL (≈ 29.9 µM) with Klebsiella pneumoniae; 16 µg/mL (≈ 29.9 µM) against Bacillus subtilis; 32 µg/mL (≈ 59.7 µM) in experiment [1].

For `O=S(=O)(Nc1ccc(-c2nc3n(n2)S(=O)(=O)c2ccccc2N3c2ccccc2)cc1)c1ccc(F)cc1`, the MIC in the experiment on Vibrio sp. came to 32 µg/mL (≈ 58.4 µM); against Pseudomonas aeruginosa it was 32 µg/mL (≈ 58.4 µM); in the experiment on Escherichia coli, 16 µg/mL (≈ 29.2 µM); with Klebsiella pneumoniae, 64 µg/mL (≈ 117 µM); with Bacillus subtilis it was 16 µg/mL (≈ 29.2 µM); in experiment [1], 16 µg/mL (≈ 29.2 µM).

As to `O=S(=O)(Nc1ccc(-c2nc3n(n2)S(=O)(=O)c2ccccc2N3c2ccccc2)cc1)c1ccc(Cl)cc1Cl`, the minimal inhibitory concentration (MIC) in the experiment with Vibrio sp. was found to be 32 µg/mL (≈ 53.5 µM); against Pseudomonas aeruginosa, 16 µg/mL (≈ 26.7 µM); against Escherichia coli, 16 µg/mL (≈ 26.7 µM); with Klebsiella pneumoniae, 32 µg/mL (≈ 53.5 µM); against Bacillus subtilis, 16 µg/mL (≈ 26.7 µM); in experiment [1], 32 µg/mL (≈ 53.5 µM).

Take `CC(=O)Nc1ccc(S(=O)(=O)Nc2ccc(-c3nc4n(n3)S(=O)(=O)c3ccccc3N4C)cc2)cc1`: the minimum inhibitory concentration (MIC) against Vibrio sp. turned out to be 32 µg/mL (≈ 61 µM); against Pseudomonas aeruginosa, 32 µg/mL (≈ 61 µM); with Escherichia coli it was 16 µg/mL (≈ 30.5 µM); in the experiment with Klebsiella pneumoniae it was 32 µg/mL (≈ 61 µM); with Bacillus subtilis it was 16 µg/mL (≈ 30.5 µM); in experiment [1], 32 µg/mL (≈ 61 µM).

Regarding `Cc1ccc(S(=O)(=O)Nc2ccc(-c3nc4n(n3)S(=O)(=O)c3ccccc3N4c3ccccc3)cc2)cc1`, the MIC came out at 32 µg/mL (≈ 58.9 µM) in the experiment on Vibrio sp.; 32 µg/mL (≈ 58.9 µM) in the experiment with Pseudomonas aeruginosa; 16 µg/mL (≈ 29.4 µM) in the experiment with Escherichia coli; 32 µg/mL (≈ 58.9 µM) in the experiment with Klebsiella pneumoniae; 8 µg/mL (≈ 14.7 µM) in the experiment on Bacillus subtilis; 32 µg/mL (≈ 58.9 µM) in experiment [1].

In the case of `Cc1ccc(S(=O)(=O)N2CCC(c3nc4n(n3)S(=O)(=O)c3ccccc3N4C)CC2)cc1`, the MIC against Vibrio sp. is 32 µg/mL (≈ 67.6 µM); in the experiment with Pseudomonas aeruginosa it was 64 µg/mL (≈ 135 µM); in the experiment on Escherichia coli it was 16 µg/mL (≈ 33.8 µM); in the experiment on Klebsiella pneumoniae, 64 µg/mL (≈ 135 µM); in the experiment with Bacillus subtilis, 16 µg/mL (≈ 33.8 µM); in experiment [1], 32 µg/mL (≈ 67.6 µM).

Regarding `CN1c2ccccc2S(=O)(=O)n2nc(C3CCN(S(=O)(=O)c4ccc(F)cc4)CC3)nc21`, the MIC in the experiment with Vibrio sp. was 32 µg/mL (≈ 67 µM); in the experiment with Pseudomonas aeruginosa it was 32 µg/mL (≈ 67 µM); against Escherichia coli it was 16 µg/mL (≈ 33.5 µM); against Klebsiella pneumoniae it was 16 µg/mL (≈ 33.5 µM); in the experiment on Bacillus subtilis, 32 µg/mL (≈ 67 µM); in experiment [1] it was 32 µg/mL (≈ 67 µM).

With `O=S(=O)(Nc1ccc(-c2nc3n(n2)S(=O)(=O)c2ccccc2N3c2ccccc2)cc1)c1ccccc1`, the minimal inhibitory concentration (MIC) in the experiment with Vibrio sp. is 32 µg/mL (≈ 60.4 µM); against Pseudomonas aeruginosa, 32 µg/mL (≈ 60.4 µM); with Escherichia coli, 16 µg/mL (≈ 30.2 µM); in the experiment with Klebsiella pneumoniae, 32 µg/mL (≈ 60.4 µM); against Bacillus subtilis it was 8 µg/mL (≈ 15.1 µM); in experiment [1] it was 32 µg/mL (≈ 60.4 µM).

With `Nc1ccc(S(=O)(=O)Nc2ncccn2)cc1` [SULFADIAZINE], the minimal inhibitory concentration (MIC) was 16 µg/mL (≈ 63.9 µM) against Vibrio sp.; 32 µg/mL (≈ 128 µM) with Pseudomonas aeruginosa; 16 µg/mL (≈ 63.9 µM) against Escherichia coli; above 64 µg/mL with Klebsiella pneumoniae; 16 µg/mL (≈ 63.9 µM) against Bacillus subtilis; 32 µg/mL (≈ 128 µM) in experiment [1].

As to `Nc1ccc(S(N)(=O)=O)cc1` [SULFANILAMIDE], the MIC in the experiment on Vibrio sp. was above 512 µg/mL; against Pseudomonas aeruginosa, above 512 µg/mL; with Escherichia coli, above 128 µg/mL; against Klebsiella pneumoniae it was above 64 µg/mL; in the experiment with Bacillus subtilis it was above 128 µg/mL; in experiment [1], above 512 µg/mL.

As a reminder, the MIC is the least concentration at which growth counts as inhibited.
